Assay results reported in patent US20230055237A1, “COMPOUNDS AND METHODS FOR THE TREATMENT OF CYSTIC FIBROSIS” (Flatley Discovery Lab, LLC, priority 2019, published 2023).

Biological target: T1, CFTR (Homo sapiens, UniProt P13569, DEL508-508)
T1 construct: Primary CF airway epithelial cells were obtained from the UNC Cystic Fibrosis Tissue Procurement and Cell Culture Core; host or cells: primary CF airway epithelial cells, differentiated at the air-liquid interface
Assay: Equivalent current assay in primary CF airway epithelial cells (NAUC, combination with 1st site corrector FDL169 or VX-809)
Format: cell-based
Conditions: 37° C., 24 h; for Nauc @ 10 μM: test compound 10 μM in combination with 1st site corrector VX-809 (3 μM)
Procedure: Primary CF airway epithelial cells were obtained from the UNC Cystic Fibrosis Tissue Procurement and Cell Culture Core. The cells are grown at 37° C. in a Heracell 150i incubator using growth media (BEGM, Fischer). […] Two days before the Ussing assay the mucus on the apical surface of the cells was aspirated after incubating with 200 μL of differentiation media for at least thirty (30) minutes. One day before the Ussing assay test compounds were added to the basolateral surface of the cells at various test concentrations dissolved in DMSO. Duplicate wells were prepared giving a n=3 or n=4 protocol.
Cells were treated for 24 hours with various combinations and concentrations of the test articles, reference standard (3 μM VX809 or 3 μM FDL169, positive control). Compounds stock solutions were prepared in DMSO and diluted 1/1000 into ALI media to their final assay concentration. Cells were treated with combination solutions (2 mL of each dilution) and incubated at 37° C. for 24 h.
For the equivalent current assay, cells on four Transwell (24-well) plates were treated. Each Transwell plate was filled with 200 μl of HBS on the apical surface and 2 ml on the basolateral surface. Plates were placed horizontally in a heated mount at 37° C., and equilibrated for several minutes. Resting current was measured for 15 min and then blocked by the apical addition of 5 μM benzamil. After 20 min, 10 μM forskolin and 1 μM VX770 were added to both the apical and basolateral side to stimulate CFTR. An increase in chloride current is seen as an upward deflection of the trace.
The raw data, current vs. time for the Ussing chamber (sampling interval: 10 s) and voltage vs. time and resistance vs. time for the equivalent current assay (sampling interval: 5 minutes) were transferred to Excel (Microsoft Office Professional, version 14.0.7106.5003) for analysis. […] This average is equivalent to the sum of the average forskolin activated and the average VX770-potentiated currents. The average current measured in vehicle (0.1% DMSO) treated cells, Iv, was subtracted from the current for the test article, ITA, or from the corrector reference standard VX809 (3 uM ISTD). For replicate measurements, the average vehicle subtracted response for the test article, was normalized to the average vehicle subtracted inhibitor response of the reference corrector VX809 (3 μM).
A second endpoint, for the equivalent current assay, evaluated was NAUC, the normalized area under the curve (AUC) measuring the response after addition of forskolin and VX770 to the time point right before the addition of the CFTR inhibitor. The AUC is effectively the average response multiplied by the duration of the response.
NAUCTA=[AUCTA−AUCV,ave]/[AUCVx809r,ave−AUCV,ave] (Equation 2).
Experiments were run with a minimum of n=4 replicates per concentration. Since the distribution for the ratio of two normal distributions is a Cauchy distribution, the median value must be used for the average and the average deviation must be used for the error of all normalized data.
E=Emin+(Emax−Emin)/(1+10^((LogEC5OS)*nH)) (Equation 3)

[1] = test compound 1 μM in combination with 1st site corrector FDL169 (3 μM)
[2] = test compound 3 μM in combination with 1st site corrector FDL169 (3 μM)
[3] = test compound 1 μM in combination with 1st site corrector VX-809 (3 μM)
[4] = test compound 3 μM in combination with 1st site corrector VX-809 (3 μM)

T1 sequence (P13569 with tags, fused parts or gaps DEL508-508): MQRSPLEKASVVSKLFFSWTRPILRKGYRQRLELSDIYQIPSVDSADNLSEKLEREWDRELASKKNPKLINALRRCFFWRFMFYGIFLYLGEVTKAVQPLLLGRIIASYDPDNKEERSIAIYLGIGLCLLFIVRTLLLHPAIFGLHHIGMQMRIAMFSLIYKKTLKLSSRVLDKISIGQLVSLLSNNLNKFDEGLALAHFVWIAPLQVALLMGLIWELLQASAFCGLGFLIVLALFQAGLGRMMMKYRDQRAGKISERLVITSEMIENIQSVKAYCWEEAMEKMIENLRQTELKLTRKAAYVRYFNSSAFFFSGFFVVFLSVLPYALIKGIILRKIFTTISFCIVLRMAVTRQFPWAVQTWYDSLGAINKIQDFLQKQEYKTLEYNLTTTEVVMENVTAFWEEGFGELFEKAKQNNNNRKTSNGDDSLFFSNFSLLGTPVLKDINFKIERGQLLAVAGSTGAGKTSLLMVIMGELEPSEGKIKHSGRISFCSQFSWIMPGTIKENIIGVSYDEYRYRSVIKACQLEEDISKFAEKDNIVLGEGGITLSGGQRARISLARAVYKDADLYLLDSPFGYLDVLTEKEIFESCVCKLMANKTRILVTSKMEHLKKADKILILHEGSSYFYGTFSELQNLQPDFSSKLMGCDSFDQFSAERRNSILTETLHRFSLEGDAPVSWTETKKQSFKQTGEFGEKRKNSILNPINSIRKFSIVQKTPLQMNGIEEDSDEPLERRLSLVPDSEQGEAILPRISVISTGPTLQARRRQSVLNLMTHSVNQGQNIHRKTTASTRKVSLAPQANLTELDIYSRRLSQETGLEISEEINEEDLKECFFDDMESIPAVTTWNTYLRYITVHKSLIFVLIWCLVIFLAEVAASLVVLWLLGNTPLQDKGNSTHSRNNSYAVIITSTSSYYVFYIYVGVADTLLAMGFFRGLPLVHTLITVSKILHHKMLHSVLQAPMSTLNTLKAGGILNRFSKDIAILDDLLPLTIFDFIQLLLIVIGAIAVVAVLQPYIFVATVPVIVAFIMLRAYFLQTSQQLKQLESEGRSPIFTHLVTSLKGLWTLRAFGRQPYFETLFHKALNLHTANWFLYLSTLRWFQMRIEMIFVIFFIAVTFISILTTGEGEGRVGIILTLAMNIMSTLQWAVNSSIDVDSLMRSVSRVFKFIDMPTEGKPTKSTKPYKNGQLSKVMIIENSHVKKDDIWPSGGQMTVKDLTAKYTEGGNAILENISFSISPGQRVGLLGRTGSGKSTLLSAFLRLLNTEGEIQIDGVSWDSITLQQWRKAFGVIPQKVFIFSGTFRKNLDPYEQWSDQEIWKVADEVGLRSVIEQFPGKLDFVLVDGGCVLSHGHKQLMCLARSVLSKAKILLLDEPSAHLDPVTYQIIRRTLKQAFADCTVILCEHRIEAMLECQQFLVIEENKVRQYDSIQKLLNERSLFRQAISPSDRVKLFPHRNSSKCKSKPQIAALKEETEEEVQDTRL

Row | Compound | Nauc @ 1 μM [1] | Nauc @ 3 μM [2] | Nauc @ 1 μM [3] | Nauc @ 3 μM [4] | Nauc @ 10 μM
1 | CC(C)(C)CN(C(=O)[C@H]1[C@@H](C(=O)O)C2(C(=O)Nc3c(Cl)cc(Cl)cc32)N2CCC[C@@H]12)c1cc(Cl)cc(Cl)c1 (single isomer, unassigned) [Example 82.6a, (1′R,2′S,7a′R)-5,7-dichloro-1-((3,5-dichlorophenyl)(neopentyl)carbamoyl)-2-oxo-1′,2′,5′,6′,7′,7a′-hexahydrospiro[indoline-3,3′-pyrrolizine]-2′-carboxylic acid] | +++ (NAUC “+++” refers to an observed NAUC>170% of positive control) | ++ (NAUC “++” refers to an observed NAUC 170-140% of positive control) |  |  | 
2 | CC(C)(C)CN(C(=O)[C@H]1[C@H]2CCCN2C2(C(=O)Nc3c(Cl)cc(Cl)cc32)[C@H]1C(=O)O)c1cc(Cl)cc(Cl)c1 (single isomer, unassigned) [Example 82.6b, (1′S,2′R,7a′S)-5,7-dichloro-1-((3,5-dichlorophenyl)(neopentyl)carbamoyl)-2-oxo-1′,2′,5′,6′,7′,7a′-hexahydrospiro[indoline-3,3′-pyrrolizine]-2′-carboxylic acid] | ++ (NAUC “++” refers to an observed NAUC 170-140% of positive control) | + (NAUC “+” refers to an observed NAUC <140% of positive control) |  |  | 
3 | O=C(O)[C@H]1[C@@H](C(=O)N(CC2CC2)c2cc(Cl)cc(Cl)c2)[C@H]2CCCN2C12C(=O)Nc1c(Cl)cc(Cl)cc12 (single isomer, unassigned) [Example 83b] | +++ (NAUC “+++” refers to an observed NAUC>170% of positive control) | +++ (NAUC “+++” refers to an observed NAUC>170% of positive control) |  |  | 
4 | O=C(O)[C@H]1[C@@H](C(=O)N(CC2CCCC2)c2cc(Cl)cc(Cl)c2)[C@H]2CCCN2C12C(=O)Nc1c(Cl)cc(Cl)cc12 (single isomer, unassigned) [Example 84b] | +++ (NAUC “+++” refers to an observed NAUC>170% of positive control) | + (NAUC “+” refers to an observed NAUC <140% of positive control) |  |  | 
5 | CN(O)C(=O)C1C(C(=O)Nc2cc(Cl)cc(Cl)c2)C2CC(F)(F)CN2C12C(=O)Nc1c(Cl)cc(Cl)cc12 (single isomer, unassigned) [Example 225a, 5,7-dichloro-N1′-(3,5-dichlorophenyl)-6′,6′-difluoro-N2′-hydroxy-N2′-methyl-2-oxo-1′,2′,5′,6′,7′,7a′-hexahydrospiro[indoline-3,3′-pyrrolizine]-1′,2′-dicarboxamide] |  |  | + (NAUC “+” refers to an observed NAUC <140% of positive control) | + (NAUC “+” refers to an observed NAUC <140% of positive control) | +++ (NAUC “+++” refers to an observed NAUC>170% of positive control)
6 | CN(O)C(=O)C1C(C(=O)Nc2cc(Cl)cc(Cl)c2)C2CC(F)(F)CN2C12C(=O)Nc1c(Cl)cc(Cl)cc12 (single isomer, unassigned) [Example 225b, 5,7-dichloro-N1′-(3,5-dichlorophenyl)-6′,6′-difluoro-N2′-hydroxy-N2′-methyl-2-oxo-1′,2′,5′,6′,7′,7a′-hexahydrospiro[indoline-3,3′-pyrrolizine]-1′,2′-dicarboxamide] |  |  | + (NAUC “+” refers to an observed NAUC <140% of positive control) | +++ (NAUC “+++” refers to an observed NAUC>170% of positive control) | +++ (NAUC “+++” refers to an observed NAUC>170% of positive control)
7 | O=C(Nc1cc(Cl)cc(Cl)c1)C1C2CC(F)(F)CN2C2(C(=O)Nc3c(Cl)cc(Cl)cc32)C1C(=O)NO (single isomer, unassigned) [Example 226a, 5,7-dichloro-N1′-(3,5-dichlorophenyl)-6′,6′-difluoro-N2′-hydroxy-2-oxo-1′,2′,5′,6′,7′,7a′-hexahydrospiro[indoline-3,3′-pyrrolizine]-1′,2′-dicarboxamide] |  |  | ++ (NAUC “++” refers to an observed NAUC 170-140% of positive control) | ++ (NAUC “++” refers to an observed NAUC 170-140% of positive control) | +++ (NAUC “+++” refers to an observed NAUC>170% of positive control)
8 | O=C(Nc1cc(Cl)cc(Cl)c1)C1C2CC(F)(F)CN2C2(C(=O)Nc3c(Cl)cc(Cl)cc32)C1C(=O)NO (single isomer, unassigned) [Example 226b, 5,7-dichloro-N1′-(3,5-dichlorophenyl)-6′,6′-difluoro-N2′-hydroxy-2-oxo-1′,2′,5′,6′,7′,7a′-hexahydrospiro[indoline-3,3′-pyrrolizine]-1′,2′-dicarboxamide] |  |  | + (NAUC “+” refers to an observed NAUC <140% of positive control) | +++ (NAUC “+++” refers to an observed NAUC>170% of positive control) | +++ (NAUC “+++” refers to an observed NAUC>170% of positive control)
9 | CN(O)C(=O)C1C(C(=O)N(C)c2cc(Cl)cc(Cl)c2)C2CC(F)(F)CN2C12C(=O)Nc1c(Cl)cc(Cl)cc12 (single isomer, unassigned) [Example 229b, 5,7-dichloro-N1′-(3,5-dichlorophenyl)-6′,6′-difluoro-N2′-hydroxy-N1′,N2′-dimethyl-2-oxo-1′,2′,5′,6′,7′,7a′-hexahydrospiro[indoline-3,3′-pyrrolizine]-1′,2′-dicarboxamide] |  |  |  |  | + (NAUC “+” refers to an observed NAUC <140% of positive control)
10 | CN(C(=O)[C@H]1[C@@H](C(=O)NCC(F)(F)F)[C@]2(C(=O)Nc3c(Cl)cc(Cl)cc32)N2CC(F)(F)C[C@@H]12)c1cc(Cl)cc(Cl)c1 (single isomer, unassigned) [Example 232a] |  |  | + (NAUC “+” refers to an observed NAUC <140% of positive control) | + (NAUC “+” refers to an observed NAUC <140% of positive control) | + (NAUC “+” refers to an observed NAUC <140% of positive control)
11 | CN(C(=O)[C@H]1[C@H]2CC(F)(F)CN2[C@]2(C(=O)Nc3c(Cl)cc(Cl)cc32)[C@H]1C(=O)NCC(F)(F)F)c1cc(Cl)cc(Cl)c1 (single isomer, unassigned) [Example 232b] |  |  | + (NAUC “+” refers to an observed NAUC <140% of positive control) | + (NAUC “+” refers to an observed NAUC <140% of positive control) | + (NAUC “+” refers to an observed NAUC <140% of positive control)
12 | O=C(Nc1cc(Cl)cc(Cl)c1)C1C2CCCN2C2(C(=O)Nc3c(Cl)cc(Cl)cc32)C1C(=O)NO (single isomer, unassigned) [Example 234a, 5,7-dichloro-N1′-(3,5-dichlorophenyl)-N2′-hydroxy-2-oxo-1′,2′,5′,6′,7′,7a′-hexahydrospiro[indoline-3,3′-pyrrolizine]-1,2′-dicarboxamide] |  |  | ++ (NAUC “++” refers to an observed NAUC 170-140% of positive control) | ++ (NAUC “++” refers to an observed NAUC 170-140% of positive control) | ++ (NAUC “++” refers to an observed NAUC 170-140% of positive control)
13 | O=C(Nc1cc(Cl)cc(Cl)c1)C1C2CCCN2C2(C(=O)Nc3c(Cl)cc(Cl)cc32)C1C(=O)NO (single isomer, unassigned) [Example 234b, 5,7-dichloro-N1′-(3,5-dichlorophenyl)-N2′-hydroxy-2-oxo-1′,2′,5′,6′,7′,7a′-hexahydrospiro[indoline-3,3′-pyrrolizine]-1,2′-dicarboxamide] |  |  | + (NAUC “+” refers to an observed NAUC <140% of positive control) | ++ (NAUC “++” refers to an observed NAUC 170-140% of positive control) | +++ (NAUC “+++” refers to an observed NAUC>170% of positive control)
